Laboratory results published in patent US10017741B2, “Compositions and methods for obtaining enriched mesenchymal stem cell cultures” (StemCell Technologies Inc., priority 2013, dated 2018).
Entries after “also recorded” stand apart in the source; their conditions may differ.

Tests used:
mouse myeloid cells = conditions: at 700 nM; cited from earlier work
[1] = tested on: mouse BM-derived cells (MSC colonies); experiment: Mouse BM-derived CFU-F assay; type: cell-based; conditions: 14 days
Procedure: (§1) a. Mouse BM and CB-Derived CFU-F Assay • 1. […] Medium was removed cultures washed with 2 mL PBS. • 4. Cells were fixed by adding 2 mL methanol/well and incubated at room temperature for 5 minutes. • 5. Methanol was removed and plates allowed to air dry for 5 minutes. • 6. To each well, 2 mL Toluidine blue solution was added and incubated for 30 minutes at room temperature. • 7. Toluidine blue solution was removed and wells rinsed with water. • 8. Water was removed and plates allowed to dry. • 9. Colony formation was assessed by enumeration and colony size. Mouse BM-derived cells were isolated as described previously and CFU-F assays setup as described above. […] Cultures were then stained with Toluidine blue and colony formation and appearance assessed. Three independent assays CFU-F assays for both BM- and CB-MSC were setup as in Example 4a and 4b. […] These assays were maintained for 14 days without media change. At the end of day 14, cultures were fixed and stained with toluidine blue and the number of MSC colonies counted.

[2] = tested on: CSF-1-independent cell line, human fibroblasts, and other endothelial cells; conditions: cited from earlier work
mouse CB-MSC cultures = experiment: Osteogenic and adipogenic differentiation of mouse CB-MSC; type: cell-based
[3] = tested on: CB-MSCs (CD45−/CD29+/Sca1+); experiment: Total cell count with flow cytometry, CB-MSC cultures; type: cell-based, mouse
Procedure: d. Flow Cytometry Analysis • 1. Cultures of BM and CB-derived cells were trypsinized for 10 minutes and an equal volume of complete medium was added to cultures to stop trypsin activity • 2. Cell suspension was filtered through a 40 μm strainer, and cells counted using a hemocytometer • 3. Suspension was spun down at 300×g for 5 minutes. • 4. Supernatant was removed and cell pellet resuspended in FACS buffer (PBS with 2% FBS and 1 mM EDTA) • 5. A total of 1×10^5 cells in 300 μL FACS buffer was used for each flow cytometry analysis tube, including unstained, viability, compensation, and isotype controls. • 6. Cell suspensions were stained with fluorophore-labeled antibodies against CD45, CD11b, and Sca1, CD29, and viability dye. • 7. Cell suspensions were analyzed on a flow cytometer using compensation and isotype control to determine laser voltage and gating. • 8. Samples were gated on viable CD45^+ cells and 10,000 events per sample were collected. Alternatively, cells were gated on viable CD45^− cells and out of this gate the proportion of CD29+/Sca1^+ cells obtained.
Prior to flow cytometry, control and GW2580-treated cultures of BM- and CB-MSC were dissociated from tissue culture flasks by trypsinization and the total number of cells counted with the aid of a hemocytometer. Flow cytometry analysis was performed and the ratio of CD45^− cells and CD45^−/CD29^+/Sca1^+ cells applied to the total number of cells to obtain the actual number of these cells in culture (Table 2).

[4] = tested on: mouse CB-derived cells (MSC colonies); experiment: Mouse CB-derived CFU-F assay; type: cell-based; conditions: 14 days
Procedure: as §1, with “CB-derived” for “BM-derived”

[5] = BM-MSC, assay 1, 1 uM GW2580, 1.0 × 10^6 cells plated
[6] = BM-MSC, assay 1, 1 uM GW2580, 2.5 × 10^5 cells plated
[7] = BM-MSC, assay 1, 1 uM GW2580, 5.0 × 10^5 cells plated
[8] = BM-MSC, assay 1, 1 uM GW2580, Sum of the three densities
[9] = BM-MSC, assay 2, 2.5 uM GW2580, 1.0 × 10^6 cells plated
[10] = BM-MSC, assay 2, 2.5 uM GW2580, 2.5 × 10^5 cells plated
[11] = BM-MSC, assay 2, 2.5 uM GW2580, 5.0 × 10^5 cells plated
[12] = BM-MSC, assay 2, 2.5 uM GW2580, Sum of the three densities
[13] = BM-MSC, assay 3, 2.5 uM GW2580, 1.0 × 10^6 cells plated
[14] = BM-MSC, assay 3, 2.5 uM GW2580, 2.5 × 10^5 cells plated
[15] = BM-MSC, assay 3, 2.5 uM GW2580, 5.0 × 10^5 cells plated
[16] = BM-MSC, assay 3, 2.5 uM GW2580, Sum of the three densities
[17] = CB-MSCs, 2.5 uM GW2580, 14 days during P0
[18] = CB-MSC, assay 1, 1 uM GW2580, 1.0 × 10^5 cells plated
[19] = CB-MSC, assay 1, 1 uM GW2580, 2.5 × 10^5 cells plated
[20] = CB-MSC, assay 1, 1 uM GW2580, 5.0 × 10^4 cells plated
[21] = CB-MSC, assay 1, 1 uM GW2580, Sum of the three densities
[22] = CB-MSC, assay 2, 2.5 uM GW2580, 1.0 × 10^6 cells plated
[23] = CB-MSC, assay 2, 2.5 uM GW2580, 2.5 × 10^5 cells plated
[24] = CB-MSC, assay 2, 2.5 uM GW2580, 5.0 × 10^5 cells plated
[25] = CB-MSC, assay 2, 2.5 uM GW2580, Sum of the three densities
[26] = CB-MSC, assay 3, 2.5 uM GW2580, 1.0 × 10^6 cells plated
[27] = CB-MSC, assay 3, 2.5 uM GW2580, 2.5 × 10^5 cells plated
[28] = CB-MSC, assay 3, 2.5 uM GW2580, 5.0 × 10^5 cells plated
[29] = CB-MSC, assay 3, 2.5 uM GW2580, Sum of the three densities

With COc1ccc(COc2ccc(Cc3cnc(N)nc3N)cc2OC)cc1 [GW2580, 5-(3-Methoxy-4-((4-methoxybenzyl)oxy)benzyl)pyrimidine-2,4-diamine] as the compound, how does the “inhibition of CSF-1-dependent growth of mouse myeloid cells” value (mouse myeloid cells) read?
The value was “completely inhibited”.

And the “overall minimal increase in number of MSC colonies vs control” value ([1]; BM-MSC, 1 or 2.5 uM, three assays)?
Its value is ≥ 20%.

What about the “% increase in number of MSC colonies vs control” value (from here on “% increase in number”) [1, 5] of the same compound?
The value was 26%.

What about the “Number of MSC colonies” value [1, 5] of the same compound?
Its value is 227.

And the “% increase in number” value [1, 6]?
The value was 26%.

And the “Number of MSC colonies” value [1, 6]?
Its value is 103.

And the “% increase in number” value [1, 7]?
The value was 44%.

What about the “Number of MSC colonies” value [1, 7] of the same compound?
The value was 201.

And the “% increase in number” value [1, 8]?
Its value is 32%.

And the “Number of MSC colonies” value [1, 8]?
The value was 531.

What about the “% increase in number” value [1, 9] of the same compound?
Its value is 21%.

And the “Number of MSC colonies” value [1, 9]?
Its value is 34.

And the “% increase in number” value [1, 10]?
Its value is 0%.

What about the “Number of MSC colonies” value [1, 10] of the same compound?
The value was 3.

And the “% increase in number” value [1, 11]?
The value was 109%.

What about the “Number of MSC colonies” value [1, 11] of the same compound?
The value was 23.

What about the “% increase in number” value [1, 12] of the same compound?
The value was 40%.

And the “Number of MSC colonies” value [1, 12]?
The value was 60.

What about the “% increase in number” value [1, 13] of the same compound?
The value was 50%.

What about the “Number of MSC colonies” value [1, 13] of the same compound?
The value was 60.

And the “% increase in number” value [1, 14]?
Its value is 67%.

And the “Number of MSC colonies” value [1, 14]?
The value was 5.

What about the “% increase in number” value [1, 15] of the same compound?
The value was 70%.

What about the “Number of MSC colonies” value [1, 15] of the same compound?
Its value is 17.

And the “% increase in number” value [1, 16]?
The value was 55%.

What about the “Number of MSC colonies” value [1, 16] of the same compound?
Its value is 82.

What about the “increase in colony number compared to control cultures” value ([1]; BM-derived, 1 μM) of the same compound?
The value was “at least 20%”.

What about the “MSC CFU-F appearance (colony size, macrophages)” value ([1]; BM-derived, 1 μM, Toluidine blue) of the same compound?
The value was “bigger in size and have a much reduced number of macrophages; also recorded: larger, enriched MSC CFU-F that are mostly free of macrophages”.

What about the “sensitivity of CSF-1-independent cell line, human fibroblasts and other endothelial cells to GW2580” value [2] of the same compound?
Its value is “highly resistant”.

And the “adipogenic and osteogenic differentiation (Oil Red O, ALP/mineralization)” value (mouse CB-MSC cultures; CB-MSC, 2.5 uM for 2 passages, plated at 4.0×10^4 cells/cm^2, 14 days)?
The value was “substantial adipogenic and osteogenic differentiation”.

And the “differentiation into osteogenic and adipogenic lineages vs control cultures” value (mouse CB-MSC cultures; mouse CB-MSC exposed to GW2580 during expansion)?
Its value is “stronger and more robust differentiation”.

What about the “increase in number of CD45−/CD29+/Sca1+ MSCs vs control” value ([3]; CB-MSC, 2.5 uM GW2580) of the same compound?
Its value is 310%.

What about the “Actual number of cells, CD45−” value [3, 17] of the same compound?
Its value is 530,702.

And the “Actual number of cells, CD45−/CD29+/Scal+” value [3, 17]?
The value was 507,616.

What about the “CD45−, Percent (Flow Cytometry)” value [3, 17] of the same compound?
Its value is 95.45%.

And the total cells [3, 17]?
The total cells was 5.56E+05.

And the “CD45−/CD29+/Scal+, Percent (Flow Cytometry)” value ([3]; CB-MSCs, 2.5 uM GW2580, 14 days during P0, out of CD45− gate)?
Its value is 95.65%.

What about the “overall minimal increase in number of MSC colonies vs control” value ([4]; CB-MSC, 1 or 2.5 uM, three assays) of the same compound?
The value was ≥ 20%.

And the “% increase in number” value [4, 18]?
The value was 51%.

And the “Number of MSC colonies” value [4, 18]?
Its value is 77.

And the “% increase in number” value [4, 19]?
The value was 30%.

What about the “Number of MSC colonies” value [4, 19] of the same compound?
The value was 133.

And the “% increase in number” value [4, 20]?
Its value is 70%.

What about the “Number of MSC colonies” value [4, 20] of the same compound?
The value was 46.

What about the “% increase in number” value [4, 21] of the same compound?
Its value is 42%.

What about the “Number of MSC colonies” value [4, 21] of the same compound?
Its value is 256.

And the “% increase in number” value [4, 22]?
Its value is 84%.

And the “Number of MSC colonies” value [4, 22]?
Its value is 83.

What about the “% increase in number” value [4, 23] of the same compound?
Its value is 25%.

What about the “Number of MSC colonies” value [4, 23] of the same compound?
Its value is 15.

What about the “% increase in number” value [4, 24] of the same compound?
The value was 9%.

And the “Number of MSC colonies” value [4, 24]?
Its value is 36.

What about the “% increase in number” value [4, 25] of the same compound?
The value was 49%.

What about the “Number of MSC colonies” value [4, 25] of the same compound?
The value was 134.

What about the “% increase in number” value [4, 26] of the same compound?
The value was 84%.

What about the “Number of MSC colonies” value [4, 26] of the same compound?
The value was 147.

What about the “% increase in number” value [4, 27] of the same compound?
The value was 25%.

What about the “Number of MSC colonies” value [4, 27] of the same compound?
Its value is 35.

And the “% increase in number” value [4, 28]?
The value was 29%.

And the “Number of MSC colonies” value [4, 28]?
The value was 89.

And the “% increase in number” value [4, 29]?
Its value is 53%.

And the “Number of MSC colonies” value [4, 29]?
The value was 271.

What about the “increase in colony number compared to control cultures” value ([4]; CB-derived, 1 μM) of the same compound?
The value was “at least 24%”.

What about the “MSC CFU-F appearance (colony size, macrophages)” value ([4]; CB-derived, 1 μM, Toluidine blue) of the same compound?
Its value is “bigger in size and have a much reduced number of macrophages; also recorded: larger, enriched MSC CFU-F that are mostly free of macrophages”.
